Data as given in publication PMC12876990, “Targeting secreted PLA2 interactions with EGFR and vimentin to arrest prostate tumour growth” (Cell Death & Disease, 2025).
Square brackets hold non-standard residues; d marks the D form. Peptide text beside a SMILES is read from it. 2Nal = N[C@@H](Cc1ccc2ccccc2c1)C(=O)O

How the values were obtained:
[1] = Pharmacokinetics of c2 after oral administration to Sprague Dawley rats (LC MS/MS); type: in vivo; details: 100 mg/kg po
Description: Rat studies were performed under contract to the accredited animal research establishment ICP Firefly Pty Ltd. (Alexandria, NSW, Australia; Ref. No AW96/042, NSW Dep’t Primary Industries) with ethics approval from the ICP Firefly animal ethics committee. Briefly, male rats (Sprague Dawley, n = 5 / group) were treated with c2 (single dose 100 mg/kg suspended in 0.1% carboxymethylcellulose, po) and housed in metabolic cages. Animals were sacrificed at 1, 2, 8 or 24 h, blood and tissue samples taken for further analysis, with urine and faeces collected for 1, 6 and 16 hours respectively. Following extraction, c2 concentration in plasma was measured using a validated LC MS/MS assay (limit of detection 7.5 ng/mL and lower limit of quantitation 15 ng/mL in plasma, accuracy 98% and imprecision 12.7% at […]).

[2] = 28-day oral toxicity study: histopathology; type: in vivo, male Sprague Dawley rats; details: Gr 3, 20 mg/kg vs Gr 1
Description: organs. Tissues and carcas ses were placed in 10% formalin. The tissues to be processed for histopathological examinations were fixed for at least 48 hours prior to cassette preparation.
The organ weights and gross pathology changes a re included in a spreadsheet as an appendix to the report (Appendix C Study Data Spreadsheets).
3.12. Tissue proces sing / Slide preparation
The tissues were placed in labelled cassette s and placed in an automated tissue processor and taken through several stages of alcohol dehydration, solvent clearing and wax infiltration.
Infiltrated tissues were embedded in wax blo ck s, which were sectioned on a microtome at between 4 and 6 µm. Sections were placed on pre-labelled glass slides and stained with haematoxylin and eo sin (H&E). Stained section s were dehydrated, then solvent cl eared and […]
Histopathological examinations were p erformed on all animals in the vehicle control and high dose treated groups (main study) on the following tissues/organs: adrenal glands, bone marrow, brain, epididymis, heart, kidney, liver, lung, lymph node: mesenteric, prostate, seminal v esicle s with coagulating glands, small and l arge intesti ne (including Peyer’s patches), spinal cord, spleen, stomach, thymus, thyroid gland, trachea, testes and urinary bladder. Slides were evaluated for histology change s under light microscopy at a magnification of 100 to 1000 times.
Individual histopathology results and a summar y are attached a s an app endix to the report (Appendix E Histopathology).
3.14. Statistical analyses
Clinical observations, detailed clinical observations, functional observations, blood and urine analyses and histopathology were summarised by descriptive analysis.
Statistical analyses, consisting of unpaired t-tests, were performed on measured variables: percentage body weight gain s, food consumption and organ weights as a percentage of body weight. A significance level of P < 0.05 was used for all tests.
St Geo rge C lini c al S chool

[3] = Pharmacokinetics of tritiated cF and c2 in BALB/c mice; type: in vivo
Description: All animal studies were performed according to the guidelines for the ethical use of animals published by the National Health and Medical Research Council of Australia. Mouse pharmacokinetic studies were conducted with approval from the Garvan Institute Animal Ethics Committee (approval #02/21). cF and c2 were radioactively labelled with tritium by catalytic saturation of peptide analogues containing dehydroleucine (Sibtech Inc.), yielding high specific activity (50–60 Ci/mmol) peptides. Their identity was confirmed by three separate analytical methods prior to delivery. Mice (BALB/c, n = 4 per timepoint) were administered a single dose of peptide by the routes and times indicated. Animals were then exsanguinated by cardiac puncture under halothane anaesthesia followed by cervical dislocation. Tissues and plasma were stored at −80 °C prior to analysis. For plasma, a known volume of plasma was added to liquid scintillant (Ultima Gold, Perkin Elmer). For tissues, a known amount of tissue (50–100 mg) was incubated in NaOH (1 mL, 1 M) overnight at room temperature. The solutions were then bleached with disodium EDTA (100 µl, 0.1%) and hydrogen peroxide (300 µl, 30%) and incubated at 50 °C for one hour. The peptide content of plasma and tissues was determined by liquid scintillation counting. The stability of the peptides following administration to animals was evaluated by thin-layer chromatography of tissue-extracted peptide relative to peptide prior to injection (Fig. S2c).

CC(C)C[C@@H]1NC(=O)[C@H](Cc2ccc3ccccc3c2)NC(=O)[C@H](CCCNC(=N)N)NC(=O)[C@H](Cc2ccc3ccccc3c2)NC(=O)[C@H](CO)NC1=O [c2, cyclo-((2-Nal)-Leu-Ser-(2-Nal)-Arg)] (cyclo([2Nal]LS[2Nal]R))
distribution after oral dosing [1]: presence in the plasma, kidney and liver | excretion [1]: majority excreted in faeces | time of peak in urine [1]: 2 h | histopathology: large intestine: colon [2]: No treatment-related differences | histopathology: liver [2]: No treatment-related differences | histopathology: small intestine: ileum [2]: No treatment-related differences | histopathology: stomach [2]: No treatment-related differences | oral bioavailability (in words) ([3]; sc and po administration): orally bioavailable | oral bioavailability relative to sc delivery (AUC analysis) ([3]; tritiated peptide 5 mg/kg, po vs sc, at 16 hours): ~ 10%
